The target of the assay is angiotensin-converting enzyme 2 (ACE2) (Homo sapiens, UniProt Q9BYF1). Briefly: SPR (Biacore T200, ACE2 coupled to CM5 chip, steady-state affinity fit). The class given is binding.

Drawing on paper PMC9868454, “Exploring novel targets of sitagliptin for type 2 diabetes mellitus: Network pharmacology, molecular docking, molecular dynamics simulation, and SPR approaches” (Frontiers in Endocrinology, 2023), this text covers Kd for one compound.

Chain of angiotensin-converting enzyme 2 (ACE2) (Q9BYF1 18-805): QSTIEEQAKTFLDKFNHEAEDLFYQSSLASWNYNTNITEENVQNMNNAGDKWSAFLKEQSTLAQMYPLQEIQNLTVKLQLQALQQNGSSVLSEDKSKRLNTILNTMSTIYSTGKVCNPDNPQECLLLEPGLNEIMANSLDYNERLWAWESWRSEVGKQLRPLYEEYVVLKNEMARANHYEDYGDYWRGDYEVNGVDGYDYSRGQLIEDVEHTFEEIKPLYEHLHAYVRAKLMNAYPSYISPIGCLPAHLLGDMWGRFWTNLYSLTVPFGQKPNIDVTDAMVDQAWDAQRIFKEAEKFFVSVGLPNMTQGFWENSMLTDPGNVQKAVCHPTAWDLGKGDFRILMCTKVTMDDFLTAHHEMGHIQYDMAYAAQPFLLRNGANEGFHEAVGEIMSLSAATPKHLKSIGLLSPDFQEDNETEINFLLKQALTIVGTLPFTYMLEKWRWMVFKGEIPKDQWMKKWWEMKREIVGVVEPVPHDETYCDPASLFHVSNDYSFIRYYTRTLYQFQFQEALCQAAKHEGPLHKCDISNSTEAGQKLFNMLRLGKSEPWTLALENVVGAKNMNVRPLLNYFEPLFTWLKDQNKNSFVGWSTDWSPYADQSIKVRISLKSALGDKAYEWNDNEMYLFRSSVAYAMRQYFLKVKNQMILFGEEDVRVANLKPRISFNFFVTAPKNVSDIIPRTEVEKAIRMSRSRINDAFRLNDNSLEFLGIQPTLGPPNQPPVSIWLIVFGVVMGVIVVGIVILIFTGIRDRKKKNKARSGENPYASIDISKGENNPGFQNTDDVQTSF

The compound `N[C@@H](CC(=O)N1CCn2c(nnc2C(F)(F)F)C1)Cc1cc(F)c(F)cc1F` [sitagliptin] registered a dissociation constant Kd of 35.1 nM.

For orientation: Kd means a measure of binding affinity in units of concentration.
